How the values were obtained:
[1] = test system: renal cancers not expressing the VHL gene; conditions: xenografted nude mice; cited from earlier work
renal cancer xenografts = conditions: xenografts in nude mice, in some cases; cited from earlier work
[2] = Safety of i.v. orellanine during long term treatment with hemodialysis, dogs; conditions: 10 mg/kg initial, then 5 mg/kg after dialysis 3 times a week for 8 weeks
Protocol: (§1) 5 pigs of the Göttingen minipig strain and 5 dogs of mixed breeding (body weight 10-15 kg) are set up for hemodialysis using equipment designed for children and infants. The animals receive initial doses of 10 mg orellanine/kg b.w. 24 h later, the animals are subjected to a dialysis session of approximately 3 h. After dialysis, the animals are injected with 5 mg orellanine/kg b.w. The dialysis/reinjection procedure is repeated 3 times a week (Monday, Wednesday, Friday) for 8 weeks. Once a week an assessment of the animals' general condition is made. At the end of the experiment all animals are terminated, and specimens for histopathological evaluation are taken from heart, lung, kidney, liver, spleen, small intestine, large intestine, brain, muscle and skin.

cleaved caspase 3 = test: Western blot of apoptosis pathways in renal cancer cells: cleaved caspase 3; type: cell-based, human; conditions: 24 h after exposure; 786-0
Protocol: (§2) For ERK 1/2 and p38, the ratios of phosphorylated (f) to total protein should be compared. Cleaved caspase 3 should be compared to the loading control, beta actin.
(§3) Renal cancer cells were cultured and exposed to orellanine according to Example 7 and harvested at various times up to 24 h. The p38 MAPK system, the p53 system, Fas Ligand, Tumor Necrosis Factor alpha (TNF) and cleaved caspase 3 are key factors in apoptotic pathways leading to cell death. Western blotting was used to determine intracellular levels of A) p38, B) cleaved caspase 3, and C) the proliferative factor phosphorylated ERK 1/2.

renal carcinoma = test: Treatment of a human patient with advanced renal cell carcinoma; type: in vivo; conditions: 10 daily i.v. injections of 280 mg (4 mg/kg), hemodialysis after each, further series as needed
Protocol: The initial tumor burden of the patient is determined to be approximately 2 kg. Based on this value, the appropriate daily dose is determined to 280 mg (4 mg/kg at b.w. 70 kg). Before the first injection, the patient is prepared for hemodialysis or peritoneal dialysis since the Orellanine treatment will inevitably destroy healthy renal epithelial tissue along with the killing of the cancer cells, thus leaving the patient without renal function. Two hours after each injection, hemodialysis is started and maintained for 2 hours. […] Optionally, if the disease is unilateral, the unaffected kidney may be surgically removed and preserved during the treatment, and reimplantation attempted after conclusion of the treatment. The progress of the patient is monitored for one month, whereafter additional serial administrations of Orellanine are given as needed to inhibit growth of the renal carcinoma.

[3] = Safety of i.v. orellanine during long term treatment with hemodialysis, pigs; conditions: 10 mg/kg initial, then 5 mg/kg after dialysis 3 times a week for 8 weeks
Protocol: as §1

[4] = test system: human renal carcinoma cells (SKRC-52); test: Subcutaneous human renal cell carcinoma in athymic rats; type: in vivo
Description: (§4) Athymic, T cell-deficient rats (RNU, Charles River Laboratories, FRG) are used as a system for in vivo-growth of human renal cell carcinomas. The absence of a T cell-based immune defense in these animals makes them tolerant towards xenografts. One week after arrival in the animal facility 10 animals receive an X-irradiation dosis of 5 Gy in order to suppress also their B cell-mediated response.
(§5) The next day, all animals are equipped with an indwelling catheter for peritoneal dialysis (PD). PD treatment will replace the renal function that is lost as a side-effect upon administration of orellanine.
(§6) One day later, 5 animals are inoculated subcutaneously in the shoulder region with approximately 10×10^6 human renal carcinoma cells (SKRC-52). The 5 remaining animals receive the same amount of cells by intravenous injection. […] At this point 2 animals (controls) in each group are injected i.p. with physiological saline solution and the remaining 3 animals receive 10 mg orellanine/kg b.w. i.p.

[5] = test system: cell lines and primary cells from numerous human tissues (tubular epithelium, podocytes, mesangial cells, fibroblasts, macrophages, endothelium, intestinal …); test: Effects of orellanine on other cell types, viability; type: cell-based; conditions: 24 h exposure, concentrations up to 1,000 μg/ml (highest achievable), observed six more days
Protocol: Cell lines and primary cells originated from numerous human tissues (tubular epithelium, podocytes and mesangial cells from renal tissue, fibroblasts, macrophages, aortic endothelium, microvascular endothelium and umbilical chord endothelium, intestinal epithelium (duodenal, jejunal, ileal and colonic) and chondrocytes) were cultured under standard conditions. When approximately 70% confluent and in stable growth, the cells were exposed for 24 h to medium containing orellanine in concentrations selected in order to achieve a dose response. […] To compensate for any growth retarding effects caused by dilution of the culture medium by the large volume of orellanine solution added, all cells were supplemented with equal volumes of orellanine buffer.

cdc2 protein = test: Western blot of cell cycle proteins in renal cancer cells: cdc2; type: cell-based, human; conditions: 100 μg/ml, 24 h
Protocol: (§7) FIG. 5: Effects of orellanine on the cell cycle in renal cell carcinoma (786-0 and SKRC-52) (Western Blot).
(§8) Renal cancer cells, cultured essentially as described in Example 3, were treated with orellanin (100 μg/ml culture medium) for 24 h. During this period cells were harvested after 0, 2, 6 and 24 h exposure. Western blots were performed on the harvested material with antibodies directed against A) the kinase inhibitor p21, B) phosphorylated retinoblastoma protein (a growth stimulating factor), and C) the cdc2 protein which allows the cell to proceed into the M-phase of the cell cycle where the cell divides.

kinase inhibitor p21 = test: Western blot of cell cycle proteins in renal cancer cells: p21; type: cell-based, human; conditions: 100 μg/ml, harvested 0, 2, 6, 24 h; 786-0 and SKRC-52
Protocol: as §7, §8

[6] = test system: Tumor Necrosis Factor alpha (TNF) mRNA; test: Quantitative PCR of apoptosis mediators in renal cancer cells: TNF; type: cell-based, human; conditions: SKRC-52, vs control cells without orellanine
[7] = test system: human renal cell carcinomas (SKRC-52, 786-0, SKRC-17, SKRC-7 and SKRC-21); test: Viability of human renal cell carcinoma cells for 7 days after 24 h exposure to orellanine; type: cell-based; conditions: 400 μM orellanine for 24 h, then orellanine-free medium, observed six more days
Protocol: FIG. 1: Observation of the viability of cells from 5 different human renal cell carcinomas (primary tumors and metastases) during 7 days following 24 h of exposure to 400 μM orellanine (100 μg/ml culture medium. Viability is calculated by dividing the number of living cells in treated samples by the number of living cells in control samples (n=6). The gray area in the graph represents the period of orellanine incubation (24 h). The following days the cells were cultured in orellanine-free complete culture medium. The medium was changed at each viability measurement.
The pictures shown in FIGS. 2A and 2B were taken with the same magnification, and one week after incubation with orellanine/vehicle.
Cells harvested from 5 different human renal cell carcinomas (SKRC-52, 786-0, SKRC-17, SKRC-7 and SKRC-21), representing both mother tumors and metastatic growths, were cultured under standard conditions. When approximately 70% confluent and in rapid growth, the cells were exposed to medium containing Orellanine (400 μM) for 24 h.

[8] = test system: phosphorylated retinoblastoma protein; test: Western blot of cell cycle proteins in renal cancer cells: phosphorylated Rb; type: cell-based, human; conditions: 100 μg/ml, 24 h measurement
Protocol: as §7, §8

[9] = test system: human renal cell carcinoma 786-0; test: Repeated administration of a lower dose of orellanine, viability; type: cell-based; conditions: for number of viable cells: viability 96 h after first dose
Protocol: FIG. 4: Effect of repeated administration of a lower dose of orellanine. […] The first case is equivalent to a prolonged exposure of the cells (48 h), whereas the cells in the second case have been allowed to recover in orellanine-free medium for two days between the doses. Viability was measured 96 h after addition of the first orellanine dose.
Cells harvested from the human renal cell carcinoma 786-0 were cultured under standard conditions. When approximately 70% confluent and in rapid growth, the cells were exposed to medium containing a low concentration of Orellanine (20 μg/ml) for 24 h. Then the medium was changed to new medium either containing 20 μg/ml orellanine for 24 h (middle bar) or back to regular, complete medium for 48 h, followed by another 24 h in the presence of 20 μg/ml orellanine (rightmost bar).

[10] = test system: human renal cell carcinomas (786-0 and SKRC7); test: Dose/response effect of orellanine on renal cell carcinoma cells; type: cell-based; conditions: single 24 h exposure
Protocol: Cells harvested from 2 different human renal cell carcinomas (SKRC-7, 786-0), representing both mother tumors and metastatic growths, were cultured under standard conditions. When approximately 70% confluent and in rapid growth, the cells were exposed to medium containing different concentrations of Orellanine […] for 24 h.

phosphorylated ERK 1/2 = test: Western blot of apoptosis pathways in renal cancer cells: ERK 1/2; type: cell-based, human; conditions: 100 μg/ml, up to 24 h; 786-0
Protocol: as §2, §3

Fas ligand (FasL) mRNA = test: Quantitative PCR of apoptosis mediators in renal cancer cells: Fas ligand; type: cell-based, human; conditions: SKRC-52, vs control cells without orellanine
PUMA mRNA = test: Quantitative PCR of apoptosis mediators in renal cancer cells: PUMA; type: cell-based, human; conditions: SKRC-52, vs control cells without orellanine
[11] = test system: human renal carcinoma cells (SKRC-52); test: Intravenously inoculated human renal cell carcinoma in athymic rats; type: in vivo; conditions: 10 mg/kg i.p. then 5 mg/kg i.v. at one and two weeks; terminated another week later
Description: as §4, §5, §6

[12] = test system: phosphorylated (activated) p38; test: Western blot of apoptosis pathways in renal cancer cells: p38; type: cell-based, human; conditions: 100 μg/ml, 24-h observation period; 786-0
Protocol: as §2, §3

[13] = test system: human clear cell cancer (SKRC52); test: Morphological signs of apoptosis during incubation with orellanine; type: cell-based; conditions: 4 h and 24 h incubation
cortical renal tissue = conditions: healthy rats; cited from earlier work

CO[C@@H]1[C@H](O)C[C@@H](O[C@@H]2C[C@H](Oc3cc4cc5c(c(O)c4c(O)c3C)C(=O)[C@@H](O[C@H]3C[C@@H](O[C@H]4C[C@@H](O[C@H]6C[C@](C)(O)[C@@H](OC(C)=O)[C@H](C)O6)[C@H](O)[C@@H](C)O4)[C@H](O)[C@@H](C)O3)[C@H]([C@H](OC)C(=O)[C@@H](O)[C@@H](C)O)C5)O[C@H](C)[C@@H]2OC(C)=O)O[C@@H]1C [Chromomycin A3]
tumor growth [1]: significantly retarded tumor growth

Cc1cc(N(CCOS(C)(=O)=O)CCOS(C)(=O)=O)ccc1C=O [NSC-281612]
effect on tumor mass (renal cancer xenografts): apparently complete eradication of the tumor mass

[O-][n+]1ccc(O)c(O)c1-c1c(O)c(O)cc[n+]1[O-] [Orellanine, 3,3′,4,4′-tetrahydroxy-2,2′-bipyridine-N,N′-dioxide]
behavior and general condition [2]: remain normal
histopathological examination [2]: no tissue damage with the exception of the kidneys where there is widespread tubular damage leading to complete renal failure
amount of cleaved caspase-3 (cleaved caspase 3): dramatically increased
renal cancer at the conclusion of the treatment (renal carcinoma): completely eradicated
behavior and general condition [3]: remain normal
histopathological examination [3]: no tissue damage with the exception of the kidneys where there is widespread tubular damage leading to complete renal failure
signs of the tumors ([4]; 10 mg/kg i.p. then 5 mg/kg into the tumor site, another 2 weeks later): no signs of the tumors are evident
tumor size relative to the size recorded at the time of injection ([4]; 10 mg/kg i.p., two weeks after first injection): less than 25%
reduction of tumor size ([4]; former control animals, 10 mg/kg into the tumor site, after 2 weeks): more than 75%
effects on viability [5]: None of the tested cell types exhibited any effects on viability
cdc2 protein level (cdc2 protein): dramatically down-regulated
intracellular levels of p21 (kinase inhibitor p21): increased with a maximum around 6 h
TNF mRNA expression [6]: extreme up-regulation
toxicity to the tested cell types (viability) [7]: highly toxic to all the tested cell types
phosphorylated forms of the retinoblastoma protein [8]: completely lacking
toxic effects of repeated exposure ([9]; repeated exposure at lower limit of the single exposure response interval (20 μg/ml)): further, marked toxic effects
number of viable cells ([9]; second dose 20 μg/ml 24 h after the first dose): strong decrease in the number of viable cells
number of viable cells ([9]; second dose 20 μg/ml at 72 h): considerably smaller, but still significant, effect
dose response interval (orellanine dose vs cell death) [10]: 5 to 200 µg/mL
phosphorylated ERK 1/2 (phosphorylated ERK 1/2): up-regulation
FasL mRNA expression (Fas ligand (FasL) mRNA): extreme up-regulation
PUMA mRNA expression (PUMA mRNA): extreme up-regulation
tumor burden relative to control animals [11]: less than 10%
phosphorylated (activated) p38 [12]: steady increase
typical signs of apoptosis, vacuolization and cell shrinkage [13]: evident already after 4 h incubation, and are further aggravated after 24 h
expression of several key antioxidant genes (cortical renal tissue): dramatically decreased expression
oxidative stress in cortical renal tissue (cortical renal tissue): increased oxidative stress

From US8349823B2, “Treatment of renal cell carcinoma” (priority 2008, dated 2013)
